Patent publication US20240083857A1, “2-Methyl-Quinazolines” (Bayer Pharma Aktiengesellschaft, priority 2017, published 2024)

How the values were obtained:
[1] = target: K-Ras^G12C : hSOS1 interaction (Homo sapiens, UniProt Q07889); experiment: Biochemical assay 1: K-Ras^G12C interaction assay with hSOS1 (HTRF); format: binding; conditions: read-out: Assay 1 (KRAS-SOS Interaction) activity expressed as IC50
[2] = target: human SOS1 (loading of human K-Ras^G12C-GDP with fluorescent GTP-analog) (Homo sapiens, UniProt Q07889); experiment: Biochemical assay 3: K-Ras^G12C activation assay by hSOS1 (HTRF); conditions: no GTP; for inhibition at 20 µM: read-out: Assay 3 (KRAS-Activation by SOS no GTP) activity expressed as % inhibition at 20 μM; for IC50: read-out: Assay 3 (KRAS-Activation by SOS no GTP) activity expressed as IC50

SMILES | IC50 [1] [nM] | inhibition at 20 µM [2] [%] | IC50 [2] [nM]
COc1cc2nc(C)nc(N[C@H](C)c3ccc(C4=CCN(C)CC4)cc3)c2cc1OC [Example 201, 6,7-dimethoxy-2-methyl-N-{(1R)-1-[4-(1-methyl-1,2,3,6-tetrahydropyridin-4-yl)phenyl]ethyl}quinazolin-4-amine] | 19700 | 50 | 
COc1cc2nc(C)nc(N[C@H](C)c3cccc(C4=CCN(C)CC4)c3)c2cc1OC [Example 202, 6,7-dimethoxy-2-methyl-N-{(1R)-1-[3-(1-methyl-1,2,3,6-tetrahydropyridin-4-yl)phenyl]ethyl}quinazolin-4-amine] | 1420 |  | 5320
C=C(C)c1ccc([C@@H](C)Nc2nc(C)nc3cc(OC)c(OC)cc23)cc1 [Example 203, 6,7-dimethoxy-2-methyl-N-{(1R)-1-[4-(prop-1-en-2-yl)phenyl]ethyl}quinazolin-4-amine] | 1370 |  | 3360
COc1cc2nc(C)nc(N[C@H](C)c3cccc(C4CC4)c3)c2cc1OC [Example 204, N-[(1R)-1-(3-cyclopropylphenyl)ethyl]-6,7-dimethoxy-2-methylquinazolin-4-amine] | 229 |  | 640
COc1cc2nc(C)nc(NC(C)c3cccc4sccc34)c2cc1OC (centres unmarked) [Example 205, N-[1-(1-benzothiophen-4-yl)ethyl]-6,7-dimethoxy-2-methylquinazolin-4-amine] | 73.8 |  | 126
COc1cc2nc(C)nc(N[C@H](C)c3ccccc3)c2cc1OC [Example 206, 6,7-dimethoxy-2-methyl-N-[(1R)-1-phenylethyl]quinazolin-4-amine] | 481 |  | 1750
COc1cc2nc(C)nc(NC(C)c3cccs3)c2cc1OC (centres unmarked) [Example 207, 6,7-dimethoxy-2-methyl-N-[1-(thiophen-2-yl)ethyl]quinazolin-4-amine] | 2730 |  | 12300
COc1cc2nc(C)nc(NC(C)c3ccc(-c4ccccc4CN4CCC(O)C4)s3)c2cc1OC (centres unmarked) [Example 210, 1-[2-(5-{1-[(6,7-dimethoxy-2-methylquinazolin-4-yl)amino]ethyl}thiophen-2-yl)benzyl]pyrrolidin-3-ol] | 38.5 |  | 100
COc1cc2nc(C)nc(NC(C)c3ccc(-c4ccccc4CN4CC[C@H](F)C4)s3)c2cc1OC (stereo partly drawn) [Example 211, N-{1-[5-(2-{[(3S)-3-fluoropyrrolidin-1-yl]methyl}phenyl)thiophen-2-yl]ethyl}-6,7-dimethoxy-2-methylquinazolin-4-amine] | 133 |  | 233
COc1cc2nc(C)nc(NC(C)c3ccc(-c4ccccc4)o3)c2cc1OC (centres unmarked) [Example 213, 6,7-dimethoxy-2-methyl-N-[1-(5-phenylfuran-2-yl)ethyl]quinazolin-4-amine] | 6760 | 42 | 
COc1cc2nc(C)nc(NC(C)c3cc(Br)cc4c3OCC4)c2cc1OC (centres unmarked) [Example 214, N-[1-(5-bromo-2,3-dihydro-1-benzofuran-7-yl)ethyl]-6,7-dimethoxy-2-methylquinazolin-4-amine] | 3330 |  | 13600
COc1cc2nc(C)nc(NC(C)c3cccc(Oc4ccccc4)c3)c2cc1OC (centres unmarked) [Example 215, 6,7-dimethoxy-2-methyl-N-[1-(3-phenoxyphenyl)ethyl]quinazolin-4-amine] | 906 |  | 2950
COc1cc2nc(C)nc(NC(C)c3cccc(-c4nn[nH]n4)c3)c2cc1OC (centres unmarked) [Example 216, 6,7-dimethoxy-2-methyl-N-{1-[3-(2H-tetrazol-5-yl)phenyl]ethyl}quinazolin-4-amine] | 6580 |  | 16100
COc1cc2nc(C)nc(NC(C)c3cccc4cccnc34)c2cc1OC (centres unmarked) [Example 217, 6,7-dimethoxy-2-methyl-N-[1-(quinolin-8-yl)ethyl]quinazolin-4-amine] | 8800 | 45 | 
COc1cc2nc(C)nc(NC(C)c3ccc(-c4cnn(CCO)c4)s3)c2cc1OC (centres unmarked) [Example 218, 2-[4-(5-{1-[(6,7-dimethoxy-2-methylquinazolin-4-yl)amino]ethyl}thiophen-2-yl)-1H-pyrazol-1-yl]ethanol] | 1960 |  | 3780
COc1cc2nc(C)nc(NC(C)c3ccc(-c4cnc5n4CCC5)s3)c2cc1OC (centres unmarked) [Example 219, N-{1-[5-(6,7-dihydro-5H-pyrrolo[1,2-a]imidazol-3-yl)thiophen-2-yl]ethyl}-6,7-dimethoxy-2-methylquinazolin-4-amine] | 415 |  | 908
COc1cc2nc(C)nc(NC(C)c3ccc(-c4cnn(CCN5CCCC5)c4)s3)c2cc1OC (centres unmarked) [Example 220, 6,7-dimethoxy-2-methyl-N-[1-(5-{1-[2-(pyrrolidin-1-yl)ethyl]-1H-pyrazol-4-yl}thiophen-2-yl)ethyl]quinazolin-4-amine] | 379 |  | 1010

SMILES | IC50 [1] [nM] | inhibition at 20 µM [2] [%] | IC50 [2] [nM]
COc1cc2nc(C)nc(NC(C)c3ccc(-c4cnn(C5CCCC5)c4)s3)c2cc1OC (centres unmarked) [Example 221, N-{1-[5-(1-cyclopentyl-1H-pyrazol-4-yl)thiophen-2-yl]ethyl}-6,7-dimethoxy-2-methylquinazolin-4-amine] | 3060 |  | 4810
COc1cc2nc(C)nc(NC(C)c3ccc(-c4cc[nH]n4)s3)c2cc1OC (centres unmarked) [Example 222, 6,7-dimethoxy-2-methyl-N-{1-[5-(1H-pyrazol-3-yl)thiophen-2-yl]ethyl}quinazolin-4-amine] | 3880 |  | 13500
COc1cc2nc(C)nc(NC(C)c3ccc(-c4ccccc4CN4CCC(F)(F)C4)s3)c2cc1OC (centres unmarked) [Example 223, N-[1-(5-{2-[(3,3-difluoropyrrolidin-1-yl)methyl]phenyl}thiophen-2-yl)ethyl]-6,7-dimethoxy-2-methylquinazolin-4-amine] | 2110 |  | 7180
COc1cc2nc(C)nc(NC(C)c3ccc4nsnc4c3)c2cc1OC (centres unmarked) [Example 229, N-[1-(2,1,3-benzothiadiazol-5-yl)ethyl]-6,7-dimethoxy-2-methylquinazolin-4-amine] | 6950 | 29 | 
CCOc1ccccc1-c1ccc(C(C)Nc2nc(C)nc3cc(OC)c(OC)cc23)s1 (centres unmarked) [Example 232, N-{1-[5-(2-ethoxyphenyl)thiophen-2-yl]ethyl}-6,7-dimethoxy-2-methylquinazolin-4-amine] | 9010 |  | 4040
COc1cc2nc(C)nc(NC(C)c3ccc(-c4ccc(F)c5ccccc45)s3)c2cc1OC (centres unmarked) [Example 233, N-{1-[5-(4-fluoronaphthalen-1-yl)thiophen-2-yl]ethyl}-6,7-dimethoxy-2-methylquinazolin-4-amine] | 10400 |  | 16100
COc1cc2nc(C)nc(NC(C)c3ccc(-c4ccc(F)cc4CN)s3)c2cc1OC (centres unmarked) [Example 234, N-[1-{5-[2-(aminomethyl)-4-fluorophenyl]thiophen-2-yl}ethyl]-6,7-dimethoxy-2-methylquinazolin-4-amine] | 75.6 |  | 92.1
COc1cc2nc(C)nc(NC(C)c3ccc(C4=CCOCC4)s3)c2cc1OC (centres unmarked) [Example 235, N-{1-[5-(3,6-dihydro-2H-pyran-4-yl)thiophen-2-yl]ethyl}-6,7-dimethoxy-2-methylquinazolin-4-amine] | 5470 |  | 5270
COc1cc2nc(C)nc(NC(C)c3ccc(-c4ccccc4CN4CCC(N(C)C)C4)s3)c2cc1OC (centres unmarked) [Example 238, N-{1-[5-(2-{[3-(dimethylamino)pyrrolidin-1-yl]methyl}phenyl)thiophen-2-yl]ethyl}-6,7-dimethoxy-2-methylquinazolin-4-amine] | 81.6 |  | 216
COc1cc2nc(C)nc(NC(C)c3csc(Br)c3)c2cc1OC (centres unmarked) [Example 239, N-[1-(5-bromothiophen-3-yl)ethyl]-6,7-dimethoxy-2-methylquinazolin-4-amine] | 7070 |  | 14300
COc1cc2nc(C)nc(NC(C)c3ccc(-c4ccccc4C(N)=O)s3)c2cc1OC (centres unmarked) [Example 240, 2-(5-{1-[(6,7-dimethoxy-2-methylquinazolin-4-yl)amino]ethyl}thiophen-2-yl)benzamide] | 3210 |  | 7570
COc1cc2nc(C)nc(NC(C)c3ccc(-c4cccc(C(N)=O)c4)s3)c2cc1OC (centres unmarked) [Example 241, 3-(5-{1-[(6,7-dimethoxy-2-methylquinazolin-4-yl)amino]ethyl}thiophen-2-yl)benzamide] | 1120 |  | 1310
COc1cc2nc(C)nc(NC(C)c3ccc(-c4ccc(C(N)=O)cc4)s3)c2cc1OC (centres unmarked) [Example 242, 4-(5-{1-[(6,7-dimethoxy-2-methylquinazolin-4-yl)amino]ethyl}thiophen-2-yl)benzamide] | 1830 |  | 3010
COc1cc2nc(C)nc(NC(C)c3ccc(-c4ccccc4N)s3)c2cc1OC (centres unmarked) [Example 243, N-{1-[5-(2-aminophenyl)thiophen-2-yl]ethyl}-6,7-dimethoxy-2-methylquinazolin-4-amine] | 252 |  | 418
COc1cc2nc(C)nc(NC(C)c3ccc(-c4ccccc4CO)s3)c2cc1OC (centres unmarked) [Example 244, [2-(5-{1-[(6,7-dimethoxy-2-methylquinazolin-4-yl)amino]ethyl}thiophen-2-yl)phenyl]methanol] | 282 |  | 444
COc1cc2nc(C)nc(NC(C)c3ccc(-c4ccccc4C#N)s3)c2cc1OC (centres unmarked) [Example 245, 2-(5-{1-[(6,7-dimethoxy-2-methylquinazolin-4-yl)amino]ethyl}thiophen-2-yl)benzonitrile] | 592 |  | 918
COc1cc2nc(C)nc(NC(C)c3ccc(-c4cccc5cn[nH]c45)s3)c2cc1OC (centres unmarked) [Example 246, N-{1-[5-(1H-indazol-7-yl)thiophen-2-yl]ethyl}-6,7-dimethoxy-2-methylquinazolin-4-amine] | 7590 | 44 | 
